Experiments:
Enterovirus A71 = test: Antiviral activity against EV71 infected in human RD cells incubated for 3 days by CellTiter 96 luminescent cell viability assay; type: functional, organism-based; settings: Enterovirus A, 71, RD, 72 h
Coxsackievirus = test: Antiviral activity against CA6 infected in human RD cells incubated for 3 days by CellTiter 96 luminescent cell viability assay; type: functional, organism-based; settings: A6, RD, 72 h
Coxsackievirus A16 = test: Antiviral activity against CA16 infected in human RD cells incubated for 3 days by CellTiter 96 luminescent cell viability assay; type: functional, organism-based; settings: Enterovirus A, 72 h
[1] = Cytotoxicity against human RD cells infected with EV71 incubated for 3 days by CellTiter 96 luminescent cell viability assay; type: toxicity, cell-based; settings: time 3 day
[2] = Cytotoxicity against human RD cells infected with CA6 incubated for 3 days by CellTiter 96 luminescent cell viability assay; type: toxicity, cell-based; settings: time 3 day
[3] = Cytotoxicity against human RD cells infected with CA16 incubated for 3 days by CellTiter 96 luminescent cell viability assay; type: toxicity, cell-based; settings: time 3 day
[4] = Selectivity index, ratio of CC50 for human RD cells to IC50 for EV71 infected in human RD cells; type: toxicity, cell-based; settings: read-out: Ratio CC50/IC50
[5] = Selectivity index, ratio of CC50 for human RD cells to IC50 for CA6 infected in human RD cells; type: toxicity, cell-based; settings: read-out: Ratio CC50/IC50
[6] = Selectivity index, ratio of CC50 for human RD cells to IC50 for CA16 infected in human RD cells; type: toxicity, cell-based; settings: read-out: Ratio CC50/IC50
[7] = system: Japanese encephalitis virus; test: Antiviral activity against JEV-SA14 infected in […] incubated for 7 days by CellTiter 96 luminescent cell viability assay; type: functional, organism-based; settings: 168 h
Yellow fever virus = test: Antiviral activity against YFV-17D infected in […] incubated for 7 days by CellTiter 96 luminescent cell viability assay; type: functional, organism-based; settings: 168 h
[8] = Cytotoxicity against […] infected with JEV-SA14 incubated for 7 days by CellTiter 96 luminescent cell viability assay; type: toxicity, cell-based; settings: time 7 day
[9] = Cytotoxicity against […] infected with YFV-17D incubated for 7 days by CellTiter 96 luminescent cell viability assay; type: toxicity, cell-based; settings: time 7 day
[10] = Selectivity index, ratio of CC50 for […] to IC50 for JEV-SA14 infected in […]; type: toxicity, cell-based; settings: read-out: Ratio CC50/IC50
[11] = Selectivity index, ratio of CC50 for […] to IC50 for YFV-17D infected in […]; type: toxicity, cell-based; settings: read-out: Ratio CC50/IC50
Dengue virus = test: Antiviral activity against DENV-NGC-1 infected in […] incubated for 7 days by CellTiter 96 luminescent cell viability assay; type: functional, organism-based; settings: NGC-1, BHK, 168 h
Zika virus = test: Antiviral activity against ZIKV-SMGC-1 infected in […] incubated for 7 days by CellTiter 96 luminescent cell viability assay; type: functional, organism-based; settings: SMGC-1, BHK, 168 h
[12] = Cytotoxicity against […] infected with DENV-NGC-1 incubated for 7 days by CellTiter 96 luminescent cell viability assay; type: toxicity, cell-based; settings: time 7 day
[13] = Selectivity index, ratio of CC50 for […] to IC50 for ZIKV-SMGC-1 infected in […]; type: toxicity, cell-based; settings: read-out: Ratio CC50/IC50
[14] = Selectivity index, ratio of CC50 for […] to IC50 for DENV-NGC infected in […]; type: toxicity, cell-based; settings: read-out: Ratio CC50/IC50
[15] = Cytotoxicity against […] infected with ZIKV-SMGC-1 incubated for 7 days by CellTiter 96 luminescent cell viability assay; type: toxicity, cell-based; settings: time 7 day

SMILES	IC50 (Enterovirus A71) [nM]	IC50 (Coxsackievirus) [nM]	IC50 (Coxsackievirus A16) [nM]	CC50 at 72 h [1] [nM]	CC50 at 72 h [2] [nM]	CC50 at 72 h [3] [nM]	selectivity ratio [4]	selectivity ratio [5]	selectivity ratio [6]	IC50 [7] [nM]	IC50 (Yellow fever virus) [nM]	CC50 at 168 h [8] [nM]	CC50 at 168 h [9] [nM]	selectivity ratio [10]	selectivity ratio [11]	IC50 (Dengue virus) [nM]	IC50 (Zika virus) [nM]	CC50 at 168 h [12] [nM]	selectivity ratio [13]	selectivity ratio [14]	also measured
O=C(c1ccc(C(F)(F)F)cc1O)c1[nH]c(Cl)c(Cl)c1-n1c(C(=O)c2ccc(C(F)(F)F)cc2O)cc(Cl)c1Sc1ncccn1	90	290	30	320	530	530	3.56	1.84	17.8												
O=C(c1ccc(C(F)(F)F)cc1O)c1[nH]c(Cl)c(Cl)c1-n1c(C(=O)c2ccc(C(F)(F)F)cc2O)cc(Cl)c1Sc1cccs1	20	30	10	80	110	110	4	3.67	12.2	50	50	230	230	4.59	4.6						
O=C(c1ccc(C(F)(F)F)cc1O)c1[nH]c(Cl)c(Cl)c1-n1c(C(=O)c2ccc(C(F)(F)F)cc2O)cc(Cl)c1Sc1nc2ccccc2o1	300	490	130	920	1560	1560	3.07	3.18	12	1250		1800		1.44		360	360	1800	5	5	
Cn1nnnc1Sc1c(Cl)cc(C(=O)c2ccc(C(F)(F)F)cc2O)n1-c1c(C(=O)c2ccc(C(F)(F)F)cc2O)[nH]c(Cl)c1Cl		2750	960		4290	4300		1.56	4.48	2790	2470	2480	2490	0.89	1.01	1740	1240	3120	2.52	1.79	CC50 at 168 h [15]: 3120 nM
O=C(c1ccc(C(F)(F)F)cc1O)c1[nH]c(Cl)c(Cl)c1-n1c(C(=O)c2ccc(C(F)(F)F)cc2O)cc(Cl)c1SCc1ccccn1	170	190	30	240	340	340	1.43	1.8	11.5	420		260		0.61							CC50 at 168 h [15]: 320 nM
O=C(c1ccc(C(F)(F)F)cc1O)c1[nH]c(Cl)c(Cl)c1-n1c(C(=O)c2ccc(C(F)(F)F)cc2O)cc(Cl)c1Sc1ccccn1		190	10		230	230		1.2	22.8	210	50	230	230	1.1	4.6						
CN(C)CCn1nnnc1Sc1c(Cl)cc(C(=O)c2ccc(C(F)(F)F)cc2O)n1-c1c(C(=O)c2ccc(C(F)(F)F)cc2O)[nH]c(Cl)c1Cl	2470			3170			1.28			2110	1970	4140	4140	1.96	2.1	1870	1690	2820	1.67	1.51	CC50 at 168 h [15]: 2820 nM
C#C[C@@]1(O)[C@H](O)[C@@H](CO)O[C@H]1n1ccc2c(N)ncnc21	500	920	710	> 20000	> 20000	> 20000	> 40	> 21.7	> 28.2	3090	1910	> 20000	> 20000	> 6.47	> 10.5	5050	1620	> 20000	> 12.3	> 3.96	CC50 at 168 h [15]: > 20000 nM
O=C(c1ccc(C(F)(F)F)cc1O)c1[nH]c(Cl)c(Cl)c1-n1c(C(=O)c2ccc(C(F)(F)F)cc2O)cc(Cl)c1SCCCO		260			1040			4		230	200	1420	1420	6.17	7.1	230	100	1420	14.2	6.17	
